According to ChEMBL document CHEMBL4507262, “Data for DCP probe A-1596586” (2021):

Legend:
[1] = molecular target: Leucine-rich repeat serine/threonine-protein kinase 2 (Homo sapiens) (UniProt Q5S007); settings: Compound concentration 1000.0 nM
[2] = molecular target: Inhibitor of nuclear factor kappa-B kinase subunit beta (Homo sapiens) (UniProt O14920); settings: Compound concentration 1000.0 nM
[3] = molecular target: Cyclin-dependent kinase 9 (Homo sapiens) (UniProt P50750); settings: Compound concentration 1000.0 nM
[4] = molecular target: Aurora kinase A (Homo sapiens) (UniProt O14965); settings: Compound concentration 1000.0 nM
Aurora kinase A (Homo sapiens), sequence (O14965 whole entry): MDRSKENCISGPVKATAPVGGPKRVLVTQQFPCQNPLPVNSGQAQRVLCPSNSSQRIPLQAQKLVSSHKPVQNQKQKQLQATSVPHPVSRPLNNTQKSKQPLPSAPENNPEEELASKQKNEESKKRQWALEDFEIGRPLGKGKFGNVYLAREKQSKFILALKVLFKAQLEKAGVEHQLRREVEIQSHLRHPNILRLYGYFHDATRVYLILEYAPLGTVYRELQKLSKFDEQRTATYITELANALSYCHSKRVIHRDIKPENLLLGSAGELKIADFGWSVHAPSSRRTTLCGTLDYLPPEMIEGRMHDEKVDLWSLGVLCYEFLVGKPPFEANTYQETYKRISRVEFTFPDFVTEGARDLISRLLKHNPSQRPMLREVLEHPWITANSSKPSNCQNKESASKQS

[5] = molecular target: Atypical kinase COQ8A, mitochondrial (Homo sapiens) (UniProt Q8NI60); settings: Compound concentration 1000.0 nM
[6] = molecular target: D(4) dopamine receptor (Homo sapiens) (UniProt P21917); settings: Compound concentration 10.0 uM
[7] = molecular target: Serine/threonine-protein kinase PAK 4 (Homo sapiens) (UniProt O96013); settings: Compound concentration 1000.0 nM
[8] = molecular target: cAMP-dependent protein kinase catalytic subunit alpha (Homo sapiens) (UniProt P17612); settings: Compound concentration 1000.0 nM
[9] = molecular target: Tyrosine-protein kinase receptor Tie-1 (Homo sapiens) (UniProt P35590); settings: Compound concentration 1000.0 nM
[10] = system: Tyrosine-protein kinase ABL1 (Homo sapiens), P00519 [Q252H]; settings: Compound concentration 1000.0 nM
[11] = molecular target: Casein kinase I isoform alpha-like (Homo sapiens) (UniProt Q8N752); settings: Compound concentration 1000.0 nM
Casein kinase I isoform alpha-like (Homo sapiens), sequence (Q8N752 whole entry, canonical isoform): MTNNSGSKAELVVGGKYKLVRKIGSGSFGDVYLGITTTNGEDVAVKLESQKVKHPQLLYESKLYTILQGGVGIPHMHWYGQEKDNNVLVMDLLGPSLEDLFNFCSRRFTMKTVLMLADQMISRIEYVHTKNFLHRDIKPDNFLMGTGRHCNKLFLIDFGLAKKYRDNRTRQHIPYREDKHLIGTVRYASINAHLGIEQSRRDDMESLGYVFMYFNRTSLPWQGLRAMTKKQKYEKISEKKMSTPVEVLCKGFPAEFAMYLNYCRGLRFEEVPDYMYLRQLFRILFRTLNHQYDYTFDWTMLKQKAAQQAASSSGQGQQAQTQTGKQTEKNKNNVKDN

[12] = molecular target: Cannabinoid receptor 2 (Homo sapiens) (UniProt P34972); assay: CB2 (h) Eurofins-Cerep binding assay; parameters: ligand concentration 0.8 nM; settings: filed as agonist, Compound concentration 10.0 uM
[13] = molecular target: Dual specificity protein kinase CLK4 (Homo sapiens) (UniProt Q9HAZ1); settings: Compound concentration 1000.0 nM
Dual specificity protein kinase CLK4 (Homo sapiens), sequence (Q9HAZ1 whole entry, looked up): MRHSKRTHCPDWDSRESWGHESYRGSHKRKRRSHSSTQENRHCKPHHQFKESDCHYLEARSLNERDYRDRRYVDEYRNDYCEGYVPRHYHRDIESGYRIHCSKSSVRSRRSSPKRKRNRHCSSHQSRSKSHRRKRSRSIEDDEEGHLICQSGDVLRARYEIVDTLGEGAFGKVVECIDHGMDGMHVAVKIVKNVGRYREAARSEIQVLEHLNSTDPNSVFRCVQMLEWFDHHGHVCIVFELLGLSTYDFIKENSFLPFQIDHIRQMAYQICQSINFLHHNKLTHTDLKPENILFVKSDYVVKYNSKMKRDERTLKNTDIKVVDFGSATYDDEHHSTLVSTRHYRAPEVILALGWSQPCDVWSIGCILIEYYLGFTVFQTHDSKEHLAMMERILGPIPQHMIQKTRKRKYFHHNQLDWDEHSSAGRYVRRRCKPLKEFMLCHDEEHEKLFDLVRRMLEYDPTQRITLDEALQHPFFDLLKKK

[14] = molecular target: NT-3 growth factor receptor (Homo sapiens) (UniProt Q16288); settings: Compound concentration 1000.0 nM
[15] = molecular target: Urotensin-2 receptor (Homo sapiens) (UniProt Q9UKP6); assay: UT (h) Eurofins-Cerep binding assay; parameters: ligand concentration 0.1 nM; settings: filed as agonist, Compound concentration 10.0 uM
[16] = molecular target: Serine/threonine-protein kinase PAK 2 (Homo sapiens) (UniProt Q13177); settings: Compound concentration 1000.0 nM
[17] = molecular target: Activin receptor type-1-like (Homo sapiens) (UniProt P37023); settings: Compound concentration 1000.0 nM
[18] = molecular target: Wee1-like protein kinase (Homo sapiens) (UniProt P30291); settings: Compound concentration 1000.0 nM
[19] = molecular target: Serine/threonine-protein kinase Nek7 (Homo sapiens) (UniProt Q8TDX7); settings: Compound concentration 1000.0 nM
Serine/threonine-protein kinase Nek7 (Homo sapiens), sequence (Q8TDX7 whole entry, looked up): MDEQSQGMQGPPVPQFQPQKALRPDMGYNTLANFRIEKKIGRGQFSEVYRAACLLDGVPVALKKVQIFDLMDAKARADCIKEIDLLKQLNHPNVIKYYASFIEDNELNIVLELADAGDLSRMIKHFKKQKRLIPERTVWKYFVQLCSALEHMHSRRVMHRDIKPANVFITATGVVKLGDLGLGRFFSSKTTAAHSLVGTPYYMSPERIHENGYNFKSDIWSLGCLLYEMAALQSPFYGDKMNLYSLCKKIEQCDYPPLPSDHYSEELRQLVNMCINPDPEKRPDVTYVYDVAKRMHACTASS

[20] = molecular target: Activin receptor type-1 (Homo sapiens) (UniProt Q04771); settings: Compound concentration 1000.0 nM
[21] = molecular target: T1, Alpha-2A adrenergic receptor (Homo sapiens) (UniProt P08913); settings: Compound concentration 10.0 uM
T1 sequence (whole entry): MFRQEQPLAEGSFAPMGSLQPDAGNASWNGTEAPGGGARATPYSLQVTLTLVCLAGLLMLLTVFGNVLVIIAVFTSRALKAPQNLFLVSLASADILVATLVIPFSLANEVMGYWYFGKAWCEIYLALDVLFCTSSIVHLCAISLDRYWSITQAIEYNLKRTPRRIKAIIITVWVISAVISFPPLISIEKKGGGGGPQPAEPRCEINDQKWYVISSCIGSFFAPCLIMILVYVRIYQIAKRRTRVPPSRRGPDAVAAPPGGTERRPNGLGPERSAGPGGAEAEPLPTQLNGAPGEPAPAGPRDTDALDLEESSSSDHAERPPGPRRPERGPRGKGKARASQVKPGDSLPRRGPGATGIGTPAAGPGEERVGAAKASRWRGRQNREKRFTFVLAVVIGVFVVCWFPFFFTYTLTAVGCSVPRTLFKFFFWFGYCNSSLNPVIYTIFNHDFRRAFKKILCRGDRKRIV

[22] = molecular target: Serine/threonine-protein kinase ICK (Homo sapiens) (UniProt Q9UPZ9); settings: Compound concentration 1000.0 nM
[23] = molecular target: Prostaglandin G/H synthase 2 (Homo sapiens) (UniProt P35354); assay: COX2(h) Eurofins-Cerep enzyme and uptake assay; settings: Compound concentration 10.0 uM
[24] = molecular target: cAMP-dependent protein kinase catalytic subunit PRKX (Homo sapiens) (UniProt P51817); settings: Compound concentration 1000.0 nM
[25] = molecular target: Dual specificity protein kinase CLK1 (Homo sapiens) (UniProt P49759); settings: Compound concentration 1000.0 nM
[26] = molecular target: Calcium/calmodulin-dependent protein kinase type IV (Homo sapiens) (UniProt Q16566); settings: Compound concentration 1000.0 nM
[27] = molecular target: Ribosomal protein S6 kinase alpha-4 (Homo sapiens) (UniProt O75676); settings: Compound concentration 1000.0 nM
Ribosomal protein S6 kinase alpha-4 (Homo sapiens), sequence (O75676 whole entry, looked up): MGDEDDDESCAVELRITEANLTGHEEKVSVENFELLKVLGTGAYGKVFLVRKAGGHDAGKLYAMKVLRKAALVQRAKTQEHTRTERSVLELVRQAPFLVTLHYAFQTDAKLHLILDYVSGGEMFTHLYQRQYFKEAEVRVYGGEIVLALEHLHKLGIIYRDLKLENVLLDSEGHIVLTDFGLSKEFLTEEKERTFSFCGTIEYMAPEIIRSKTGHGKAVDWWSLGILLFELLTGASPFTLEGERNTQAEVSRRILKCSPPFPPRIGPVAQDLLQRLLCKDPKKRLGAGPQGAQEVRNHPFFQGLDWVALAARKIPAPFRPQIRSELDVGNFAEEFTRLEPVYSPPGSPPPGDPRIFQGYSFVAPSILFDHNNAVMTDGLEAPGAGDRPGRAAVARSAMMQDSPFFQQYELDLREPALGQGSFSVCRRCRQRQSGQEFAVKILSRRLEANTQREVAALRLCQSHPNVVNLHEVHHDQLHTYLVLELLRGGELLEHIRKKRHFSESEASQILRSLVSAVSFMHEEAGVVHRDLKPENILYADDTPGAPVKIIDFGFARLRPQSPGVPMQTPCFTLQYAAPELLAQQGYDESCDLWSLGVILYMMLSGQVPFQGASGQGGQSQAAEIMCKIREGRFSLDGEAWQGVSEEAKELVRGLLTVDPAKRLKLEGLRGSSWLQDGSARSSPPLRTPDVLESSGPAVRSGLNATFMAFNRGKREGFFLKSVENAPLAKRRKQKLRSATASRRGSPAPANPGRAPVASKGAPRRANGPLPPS

[28] = molecular target: Vasoactive intestinal polypeptide receptor 1 (Homo sapiens) (UniProt P32241); assay: VPAC1 (VIP1) (h) Eurofins-Cerep binding assay; settings: filed as agonist, Compound concentration 10.0 uM
[29] = molecular target: Beta-1 adrenergic receptor (Homo sapiens) (UniProt P08588); assay: Beta1 (h) Eurofins-Cerep binding assay; parameters: ligand concentration 0.3 nM; settings: filed as agonist, Compound concentration 10.0 uM
Beta-1 adrenergic receptor (Homo sapiens), sequence (P08588 whole entry, looked up): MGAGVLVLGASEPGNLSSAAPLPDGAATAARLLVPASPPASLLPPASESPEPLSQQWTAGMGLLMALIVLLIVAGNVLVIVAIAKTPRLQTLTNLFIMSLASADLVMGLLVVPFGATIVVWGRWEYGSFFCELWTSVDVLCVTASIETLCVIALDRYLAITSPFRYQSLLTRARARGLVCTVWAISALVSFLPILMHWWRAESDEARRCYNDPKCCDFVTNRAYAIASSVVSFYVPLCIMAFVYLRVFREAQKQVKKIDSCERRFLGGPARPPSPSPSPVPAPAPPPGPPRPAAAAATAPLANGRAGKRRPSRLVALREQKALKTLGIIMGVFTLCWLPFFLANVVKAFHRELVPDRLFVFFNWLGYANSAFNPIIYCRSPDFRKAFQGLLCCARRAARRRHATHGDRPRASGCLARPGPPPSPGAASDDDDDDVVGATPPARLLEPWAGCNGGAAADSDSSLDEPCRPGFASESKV

[30] = molecular target: Leukocyte tyrosine kinase receptor (Homo sapiens) (UniProt P29376); settings: Compound concentration 1000.0 nM
[31] = molecular target: Adenosine receptor A2a (Homo sapiens) (UniProt P29274); assay: A2A (h) Eurofins-Cerep binding assay; parameters: ligand concentration 6 nM; settings: filed as agonist, Compound concentration 10.0 uM
[32] = molecular target: Bone morphogenetic protein receptor type-1A (Homo sapiens) (UniProt P36894); settings: Compound concentration 1000.0 nM
[33] = molecular target: Tyrosine-protein kinase Fgr (Homo sapiens) (UniProt P09769); settings: Compound concentration 1000.0 nM
[34] = molecular target: Mitogen-activated protein kinase kinase kinase 2 (Homo sapiens) (UniProt Q9Y2U5); settings: Compound concentration 1000.0 nM
[35] = molecular target: Acetylcholinesterase (Homo sapiens) (UniProt P22303); assay: Acetylcholinesterase (h) Eurofins-Cerep enzyme and uptake assay; settings: Compound concentration 10.0 uM
Acetylcholinesterase (Homo sapiens), sequence (P22303 whole entry): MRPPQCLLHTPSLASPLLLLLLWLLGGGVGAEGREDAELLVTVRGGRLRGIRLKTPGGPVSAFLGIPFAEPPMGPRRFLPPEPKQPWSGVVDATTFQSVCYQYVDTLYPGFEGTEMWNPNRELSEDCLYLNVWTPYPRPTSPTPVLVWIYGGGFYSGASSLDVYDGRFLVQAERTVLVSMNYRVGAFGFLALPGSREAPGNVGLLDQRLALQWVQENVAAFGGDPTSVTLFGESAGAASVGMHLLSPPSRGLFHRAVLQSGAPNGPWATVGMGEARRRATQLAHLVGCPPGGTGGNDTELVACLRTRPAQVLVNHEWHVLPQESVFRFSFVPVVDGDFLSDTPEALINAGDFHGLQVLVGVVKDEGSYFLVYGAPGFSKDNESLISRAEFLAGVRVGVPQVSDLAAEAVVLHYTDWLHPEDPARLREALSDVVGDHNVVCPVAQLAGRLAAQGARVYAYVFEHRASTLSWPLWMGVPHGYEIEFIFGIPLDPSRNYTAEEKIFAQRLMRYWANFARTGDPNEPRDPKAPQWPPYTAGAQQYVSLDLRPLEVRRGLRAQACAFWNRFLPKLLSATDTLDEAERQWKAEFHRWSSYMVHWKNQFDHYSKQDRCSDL

[36] = molecular target: Serine/threonine-protein kinase PLK1 (Homo sapiens) (UniProt P53350); settings: Compound concentration 1000.0 nM
[37] = molecular target: Type-1 angiotensin II receptor (Homo sapiens) (UniProt P30556); assay: AT1 (h) Eurofins-Cerep binding assay; parameters: ligand concentration 0.05 nM; settings: filed as antagonist, Compound concentration 10.0 uM
[38] = molecular target: Cyclin-dependent kinase-like 5 (Homo sapiens) (UniProt O76039); settings: Compound concentration 1000.0 nM
[39] = molecular target: Fibroblast growth factor receptor 4 (Homo sapiens) (UniProt P22455); settings: Compound concentration 1000.0 nM
Fibroblast growth factor receptor 4 (Homo sapiens), sequence (P22455 22-802 limits assumed): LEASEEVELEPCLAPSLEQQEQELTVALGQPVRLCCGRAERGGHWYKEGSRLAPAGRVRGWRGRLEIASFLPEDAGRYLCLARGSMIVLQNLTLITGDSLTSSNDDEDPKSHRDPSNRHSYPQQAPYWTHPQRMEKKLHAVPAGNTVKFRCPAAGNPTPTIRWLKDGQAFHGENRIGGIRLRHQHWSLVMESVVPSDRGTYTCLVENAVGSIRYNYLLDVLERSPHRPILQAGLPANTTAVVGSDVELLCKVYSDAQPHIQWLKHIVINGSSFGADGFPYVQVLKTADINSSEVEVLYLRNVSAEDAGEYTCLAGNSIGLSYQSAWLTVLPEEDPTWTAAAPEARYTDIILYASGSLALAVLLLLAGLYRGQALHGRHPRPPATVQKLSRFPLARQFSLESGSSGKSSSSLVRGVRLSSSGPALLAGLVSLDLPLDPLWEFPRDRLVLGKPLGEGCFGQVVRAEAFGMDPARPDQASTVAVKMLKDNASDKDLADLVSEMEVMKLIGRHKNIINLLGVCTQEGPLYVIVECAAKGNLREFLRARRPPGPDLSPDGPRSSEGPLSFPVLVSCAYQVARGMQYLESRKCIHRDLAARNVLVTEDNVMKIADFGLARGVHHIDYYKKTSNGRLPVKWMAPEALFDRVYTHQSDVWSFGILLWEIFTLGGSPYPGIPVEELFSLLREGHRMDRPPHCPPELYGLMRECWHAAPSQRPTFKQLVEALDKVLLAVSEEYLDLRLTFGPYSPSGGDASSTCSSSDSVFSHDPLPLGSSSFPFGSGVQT

Inhibitor of nuclear factor kappa-B kinase subunit beta (Homo sapiens), sequence (O14920 whole entry): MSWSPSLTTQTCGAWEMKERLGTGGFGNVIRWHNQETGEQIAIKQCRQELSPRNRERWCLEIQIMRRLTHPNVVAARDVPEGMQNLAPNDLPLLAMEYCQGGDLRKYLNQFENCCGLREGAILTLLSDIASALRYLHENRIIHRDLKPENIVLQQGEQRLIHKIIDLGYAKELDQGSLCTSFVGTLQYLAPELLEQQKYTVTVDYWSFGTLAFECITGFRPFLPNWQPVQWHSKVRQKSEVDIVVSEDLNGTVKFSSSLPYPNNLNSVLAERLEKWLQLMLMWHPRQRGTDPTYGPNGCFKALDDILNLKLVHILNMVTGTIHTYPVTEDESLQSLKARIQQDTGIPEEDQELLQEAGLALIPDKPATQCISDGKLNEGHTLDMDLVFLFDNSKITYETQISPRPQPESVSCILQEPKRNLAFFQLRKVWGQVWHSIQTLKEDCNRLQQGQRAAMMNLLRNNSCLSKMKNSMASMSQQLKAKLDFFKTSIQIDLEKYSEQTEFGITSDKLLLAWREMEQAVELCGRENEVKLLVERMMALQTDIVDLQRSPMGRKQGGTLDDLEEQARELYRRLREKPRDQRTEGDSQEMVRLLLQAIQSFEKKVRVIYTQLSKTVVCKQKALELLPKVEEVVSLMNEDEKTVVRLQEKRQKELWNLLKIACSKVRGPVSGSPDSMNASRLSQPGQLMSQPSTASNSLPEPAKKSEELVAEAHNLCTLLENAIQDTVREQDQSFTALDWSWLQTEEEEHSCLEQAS

`COc1ccc2c(c1)O[C@@H](c1ccc(OC)c(OC)c1)C[C@H]2NC(=O)C1(c2ccc3c(c2)OC(F)(F)O3)CC1` [A-1596586] showed a residual activity [1] of 87%, a residual activity [2] of 95% and a residual activity [3] of 89%. The residual activity [4] was 92%, the residual activity [5] was 87% and the inhibition [6] was -7.47%. The residual activity [7] was 89%, the residual activity [8] was 100% and the residual activity [9] was 100%. For the same molecule, the residual activity [10] was 93%, the residual activity [11] was 100% and the % Inhibition of Control Specific Binding (Mean n=2) [12] was 30.2%. It also gave a residual activity [13] of 100%, a residual activity [14] of 83% and a % Inhibition of Control Specific Binding (Mean n=2) [15] of 29.3%. The residual activity [16] was 100%, the residual activity [17] was 97% and the residual activity [18] was 99%. For the same molecule, the residual activity [19] was 100%, the residual activity [20] was 100% and the inhibition [21] was 17.6%. The residual activity [22] was 74%, the % Inhibition of Control Values (Mean n=2) [23] was -9.3% and the residual activity [24] was 83%. For the same molecule, the residual activity [25] was 100%, the residual activity [26] was 89% and the residual activity [27] was 94%. For the same molecule, the % Inhibition of Control Specific Binding (Mean n=2) [28] was 10.4%, the % Inhibition of Control Specific Binding (Mean n=2) [29] was 3.1% and the residual activity [30] was 100%. For the same molecule, the % Inhibition of Control Specific Binding (Mean n=2) [31] was 11.2%, the residual activity [32] was 92% and the residual activity [33] was 94%. For the same molecule, the residual activity [34] was 86%, the % Inhibition of Control Values (Mean n=2) [35] was -6.2% and the residual activity [36] was 70%. The % Inhibition of Control Specific Binding (Mean n=2) [37] was -1.1%, the residual activity [38] was 85% and the residual activity [39] was 90%.

`COc1ccc2c(c1)O[C@H](c1ccc(OC)c(OC)c1)C[C@@H]2NC(=O)C1(c2ccc3c(c2)OC(F)(F)O3)CC1` [A-1596584] gave a residual activity [1] of 100%, a residual activity [2] of 97% and a residual activity [3] of 78%. It also gave a residual activity [4] of 100%, a residual activity [5] of 100% and an inhibition [6] of -6.5%. The residual activity [7] was 100%, the residual activity [8] was 100% and the residual activity [9] was 100%. It also gave a residual activity [10] of 100%, a residual activity [11] of 100% and a % Inhibition of Control Specific Binding (Mean n=2) [12] of 73.7%. For the same molecule, the residual activity [13] was 92%, the residual activity [14] was 92% and the % Inhibition of Control Specific Binding (Mean n=2) [15] was 15.7%. For the same molecule, the residual activity [16] was 100%, the residual activity [17] was 90% and the residual activity [18] was 100%. The residual activity [19] was 100%, the residual activity [20] was 98% and the inhibition [21] was 14.9%. The residual activity [22] was 80%, the % Inhibition of Control Values (Mean n=2) [23] was -17.9% and the residual activity [24] was 100%. It also gave a residual activity [25] of 100%, a residual activity [26] of 100% and a residual activity [27] of 100%. It also gave a % Inhibition of Control Specific Binding (Mean n=2) [28] of 5%, a % Inhibition of Control Specific Binding (Mean n=2) [29] of -2.1% and a residual activity [30] of 100%. The % Inhibition of Control Specific Binding (Mean n=2) [31] was 7.8%, the residual activity [32] was 98% and the residual activity [33] was 87%. It also gave a residual activity [34] of 91%, a % Inhibition of Control Values (Mean n=2) [35] of -3.9% and a residual activity [36] of 83%. It also gave a % Inhibition of Control Specific Binding (Mean n=2) [37] of 12.3%, a residual activity [38] of 100% and a residual activity [39] of 100%.
